Source: PubChem BioAssay AID330 (DTP/NCI, 2004)
Where “and” joins values, the source holds several entries; their conditions need not be identical. Identical values can stand only once. Toxic doses and inconclusive results are not listed.

Tested on: P388 leukemia ip, CD2F1 mice, survival T/C
Experiment: NCI In Vivo Anticancer Drug Screen. Data for tumor model P388 Leukemia (intraperitoneal) in CD2F1 (CDF1) mice
Settings: endpoint: median survival time, higher = longer survival
How it was run: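 Mice carrying the transplanted tumor received test compound or vehicle. Survival was recorded in each group, and the value is the treated-group measurement divided by that of the vehicle-treated control group.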

[1] = dose: 100.0 mg/kg/injection, schedule: Q04DX003 (ip), vehicle: saline
[2] = dose: 400.0 mg/kg/injection, schedule: Q04DX003 (ip), vehicle: saline
[3] = dose: 50.0 mg/kg/injection, schedule: Q01DX009 (ip), vehicle: saline with Tween-80
[4] = dose: 60.0 mg/kg/injection, schedule: Q01DX005 (ip), vehicle: saline with Tween-80
[5] = dose: 120.0 mg/kg/injection, schedule: Q01DX005 (ip), vehicle: saline with Tween-80
[6] = dose: 240.0 mg/kg/injection, schedule: Q01DX005 (ip), vehicle: saline with Tween-80
[7] = dose: 200.0 mg/kg/injection, schedule: Q04DX003 (ip), vehicle: saline
[8] = dose: 100.0 mg/kg/injection, schedule: Q01DX009 (ip), vehicle: saline with Tween-80
[9] = dose: 200.0 mg/kg/injection, schedule: Q01DX009 (ip), vehicle: saline with Tween-80
[10] = dose: 60.0 mg/kg/injection, schedule: Q01DX005 (ip), vehicle: Klucel (hydroxypropylcellulose) (HPC)
[11] = dose: 120.0 mg/kg/injection, schedule: Q01DX005 (ip), vehicle: Klucel (hydroxypropylcellulose) (HPC)
[12] = dose: 240.0 mg/kg/injection, schedule: Q01DX005 (ip), vehicle: Klucel (hydroxypropylcellulose) (HPC)
[13] = dose: 25.0 mg/kg/injection, schedule: Q01DX001 (ip), vehicle: saline with Tween-80
[14] = dose: 50.0 mg/kg/injection, schedule: Q01DX001 (ip), vehicle: saline with Tween-80
[15] = dose: 100.0 mg/kg/injection, schedule: Q01DX001 (ip), vehicle: saline with Tween-80
[16] = dose: 50.0 mg/kg/injection, schedule: Q01DX005 (ip), vehicle: saline with Tween-80
[17] = dose: 100.0 mg/kg/injection, schedule: Q01DX005 (ip), vehicle: saline with Tween-80
[18] = dose: 200.0 mg/kg/injection, schedule: Q01DX005 (ip), vehicle: saline with Tween-80

## Clc1ccccc1Nc1c2ccccc2nc2ccccc12
[1]
  T/C: 100 % of control
dose: 132.0 mg/kg/injection, schedule: Q04DX003 (ip), vehicle: suspension in saline
  T/C: 108 % of control
dose: 200.0 mg/kg/injection, schedule: Q04DX003 (ip), vehicle: suspension in saline
  T/C: 110 % of control
dose: 300.0 mg/kg/injection, schedule: Q04DX003 (ip), vehicle: suspension in saline
  T/C: 115 % of control
[2]
  T/C: 104 % of control

## Nc1ncnc2[nH]c(=S)[nH]c12
dose: 1.56 mg/kg/injection, schedule: Q01DX005 (ip), vehicle: Klucel (hydroxypropylcellulose) (HPC)
  T/C: 110 % of control
dose: 3.12 mg/kg/injection, schedule: Q01DX005 (ip), vehicle: Klucel (hydroxypropylcellulose) (HPC)
  T/C: 94 % of control
dose: 6.25 mg/kg/injection, schedule: Q01DX005 (ip), vehicle: Klucel (hydroxypropylcellulose) (HPC)
  T/C: 99 % of control and 97 % of control

## CCOc1cc2c(cc1C(C)c1cc(OC)c(OC)c(OC)c1)OCO2 (configuration not stated)
dose: 50.0 mg/kg/injection, schedule: Q01DX005 (ip), vehicle: Klucel (hydroxypropylcellulose) (HPC)
  T/C: 96 % of control
dose: 100.0 mg/kg/injection, schedule: Q01DX005 (ip), vehicle: Klucel (hydroxypropylcellulose) (HPC)
  T/C: 102 % of control
dose: 200.0 mg/kg/injection, schedule: Q01DX005 (ip), vehicle: Klucel (hydroxypropylcellulose) (HPC)
  T/C: 96 % of control

## CNC(=O)OCc1nc(SC)n(C)c1COC(=O)NC
dose: 25.0 mg/kg/injection, schedule: Q01DX005 (ip), vehicle: saline
  T/C: 160 % of control
dose: 30.0 mg/kg/injection, schedule: Q01DX005 (ip), vehicle: saline
  T/C: 166 % of control and 172 % of control and 187 % of control
dose: 34.0 mg/kg/injection, schedule: Q01DX005 (ip), vehicle: saline
  T/C: 158 % of control and 164 % of control and 173 % of control
dose: 50.0 mg/kg/injection, schedule: Q01DX005 (ip), vehicle: saline
  T/C: 184 % of control and 193 % of control
dose: 51.0 mg/kg/injection, schedule: Q01DX005 (ip), vehicle: saline
  T/C: 186 % of control and 196 % of control and 200 % of control
dose: 77.0 mg/kg/injection, schedule: Q01DX005 (ip), vehicle: saline
  T/C: 188 % of control
dose: 100.0 mg/kg/injection, schedule: Q01DX005 (ip), vehicle: saline
  T/C: 236 % of control

## CCOc1ccc2c(c1)c(C)cc(C)[n+]2CC
dose: 6.25 mg/kg/injection, schedule: Q04DX003 (ip), vehicle: saline with Tween-80
  T/C: 97 % of control
dose: 12.5 mg/kg/injection, schedule: Q04DX003 (ip), vehicle: saline with Tween-80
  T/C: 99 % of control

## O=C(Nc1ccc(Cl)c(Cl)c1)n1cnc2ccccc21
dose: 6.25 mg/kg/injection, schedule: Q01DX009 (ip), vehicle: saline
  T/C: 105 % of control and 109 % of control
[3]
  T/C: 98 % of control

## [Mn+2].[Mn+2].c1ccc2c(c1)-c1nc-2nc2[n-]c(nc3nc(nc4[n-]c(n1)c1ccccc41)-c1ccccc1-3)c1cc3c4nc5nc(nc6[n-]c(nc7nc(nc([n-]4)c3cc21)-c1ccccc1-7)c1ccccc61)-c1ccccc1-5
[4]
  T/C: 96 % of control
[5]
  T/C: 99 % of control
[6]
  T/C: 106 % of control

## O=S(=O)(O)/[N+]([O-])=N/O
[1]
  T/C: 100 % of control
[7]
  T/C: 100 % of control
[2]
  T/C: 100 % of control

## CC1CCCC2CC3CCCCC3OCN12 (configuration not stated)
[1]
  T/C: 109 % of control
[7]
  T/C: 104 % of control
[2]
  T/C: 104 % of control

## COC1OC2COC(c3ccccc3)OC2C(O)C1O (configuration not stated)
[3]
  T/C: 100 % of control
[8]
  T/C: 107 % of control
[9]
  T/C: 105 % of control
dose: 400.0 mg/kg/injection, schedule: Q01DX009 (ip), vehicle: saline with Tween-80
  T/C: 107 % of control

## CCOC(=O)CCC(=O)Oc1cccc2c1C(=O)c1c(O)cccc1C2=O
[10]
  T/C: 91 % of control
[11]
  T/C: 95 % of control
[12]
  T/C: 97 % of control

## COc1ccc(C(C#N)C(=O)CCC(=O)C(C#N)c2ccc(OC)c(OC)c2)cc1OC (configuration not stated)
dose: 100.0 mg/kg/injection, schedule: Q04DX002 (ip), vehicle: saline with Tween-80
  T/C: 106 % of control
dose: 200.0 mg/kg/injection, schedule: Q04DX002 (ip), vehicle: saline with Tween-80
  T/C: 98 % of control

## CCN(CC)c1c(C)nnc2c3cccnc3nn12
[13]
  T/C: 100 % of control
[14]
  T/C: 103 % of control
[15]
  T/C: 106 % of control and 97 % of control

## O=C1c2ccccc2CN1Cc1ccc(Cl)c(Cl)c1
[3]
  T/C: 96 % of control
[8]
  T/C: 89 % of control
[9]
  T/C: 91 % of control

## CCCCNC=C1C(=O)Nc2ccccc2NC1=O
[10]
  T/C: 98 % of control
[11]
  T/C: 92 % of control
[12]
  T/C: 91 % of control

## OC1CN(C(c2ccccc2)c2ccccc2)C1
dose: 50.0 mg/kg/injection, schedule: Q01DX009 (ip), vehicle: Klucel (hydroxypropylcellulose) (HPC)
  T/C: 100 % of control
dose: 100.0 mg/kg/injection, schedule: Q01DX009 (ip), vehicle: Klucel (hydroxypropylcellulose) (HPC)
  T/C: 108 % of control
dose: 200.0 mg/kg/injection, schedule: Q01DX009 (ip), vehicle: Klucel (hydroxypropylcellulose) (HPC)
  T/C: 104 % of control

## c1ccc2c[s+]ccc2c1
dose: 50.0 mg/kg/injection, schedule: Q01DX009 (ip), vehicle: suspension in saline
  T/C: 90 % of control
dose: 100.0 mg/kg/injection, schedule: Q01DX009 (ip), vehicle: suspension in saline
  T/C: 97 % of control

## CC(=O)N(C)c1ccc(N=Nc2ccc3ncccc3c2)cc1
dose: 12.5 mg/kg/injection, schedule: Q01DX005 (ip), vehicle: saline with Tween-80
  T/C: 102 % of control
dose: 25.0 mg/kg/injection, schedule: Q01DX005 (ip), vehicle: saline with Tween-80
  T/C: 100 % of control

## CC(=O)O[C@H]1C(=O)C=C[C@H](C)[C@@H]2CC[C@H](OC(C)(C)C)[C@@]12C
[16]
  T/C: 102 % of control
[17]
  T/C: 98 % of control
[18]
  T/C: 108 % of control

## CC(=O)ON(C(C)=O)C1CCCCC1
[3]
  T/C: 100 % of control
[8]
  T/C: 97 % of control
[9]
  T/C: 98 % of control

## CC1(C)Cc2cc3ccccc3nc2-c2ccccc21
[16]
  T/C: 107 % of control
[17]
  T/C: 102 % of control
[18]
  T/C: 107 % of control

## COC(=O)C(C)(OC)SC (configuration not stated)
[4]
  T/C: 106 % of control
[5]
  T/C: 100 % of control
[6]
  T/C: 98 % of control

## COc1cc(CBr)ccc1OCc1ccccc1
dose: 12.5 mg/kg/injection, schedule: Q01DX009 (ip), vehicle: distilled water + Tween-80
  T/C: 111 % of control
dose: 25.0 mg/kg/injection, schedule: Q01DX009 (ip), vehicle: distilled water + Tween-80
  T/C: 101 % of control
dose: 50.0 mg/kg/injection, schedule: Q01DX009 (ip), vehicle: distilled water + Tween-80
  T/C: 108 % of control
dose: 100.0 mg/kg/injection, schedule: Q01DX009 (ip), vehicle: distilled water + Tween-80
  T/C: 108 % of control

## NC(N)=O.NC(N)=O.NC(N)=O.NC(N)=O.NC(N)=O.NC(N)=O.[O-][Cl+3]([O-])([O-])O.[Ti+3]
dose: 50.0 mg/kg/injection, schedule: Q01DX009 (ip), vehicle: saline
  T/C: 99 % of control
dose: 100.0 mg/kg/injection, schedule: Q01DX009 (ip), vehicle: saline
  T/C: 92 % of control
dose: 200.0 mg/kg/injection, schedule: Q01DX009 (ip), vehicle: saline
  T/C: 86 % of control

## CC1CCC(OC(=O)N(CCCl)N=O)CC1 (configuration not stated)
dose: 3.12 mg/kg/injection, schedule: Q01DX001 (ip), vehicle: saline with Tween-80
  T/C: 100 % of control
dose: 6.25 mg/kg/injection, schedule: Q01DX001 (ip), vehicle: saline with Tween-80
  T/C: 108 % of control
dose: 12.5 mg/kg/injection, schedule: Q01DX001 (ip), vehicle: saline with Tween-80
  T/C: 111 % of control
[13]
  T/C: 118 % of control
[14]
  T/C: 105 % of control
[15]
  T/C: 114 % of control and 86 % of control
dose: 150.0 mg/kg/injection, schedule: Q01DX001 (ip), vehicle: saline with Tween-80
  T/C: 100 % of control

## O=C1CN(c2cccc(Cl)c2)C(=O)CN1/N=C/c1ccc(O)c(O)c1
[16]
  T/C: 88 % of control
[17]
  T/C: 92 % of control
[18]
  T/C: 100 % of control

## O=C1c2c(c(Cl)c3ccccc3c2O)C(=O)C2C3C=CC(C3)C12 (configuration not stated)
[16]
  T/C: 96 % of control
[17]
  T/C: 89 % of control
[18]
  T/C: 89 % of control

## CN1C2CCCC1CC1(C2)NC(=O)NC1=O (configuration not stated)
dose: 50.0 mg/kg/injection, schedule: Q01DX009 (ip), vehicle: water
  T/C: 99 % of control
dose: 100.0 mg/kg/injection, schedule: Q01DX009 (ip), vehicle: water
  T/C: 100 % of control

## C1=CCC(C(Nc2nncs2)Nc2nncs2)CC1 (configuration not stated)
[4]
  T/C: 107 % of control
[6]
  T/C: 108 % of control
